According to US11160742B2, “Methods and compositions for improving hair color fastness and rejuvenating hair color” (L'Oreal, priority 2018, dated 2021):

Test: Partition coefficient (Log Po/w) of direct dyes
Conditions: octanol/water partition coefficient

For `Cn1cc[n+](C)c1N=Nc1ccc(N)cc1.[Cl-]` [BASIC ORANGE 31, Basic Orange 31], the “Log Po/w value” was “around −2.31”.
With `CN(C)c1ccc(/N=N/c2n(C)cc[n+]2C)cc1` [BASIC RED 51, Basic Red 51] the “Log Po/w value” was “around −1.97”.
In the case of `CN(N=Cc1cc[n+](C)cc1)c1ccccc1` [BASIC YELLOW 87, Basic Yellow 87], the “Log Po/w value” is reported as “around −1.67”.

Same assay, conditions: octanol/water partition coefficient, table of dyes

Point of comparison: `Cn1cc[n+](C)c1N=Nc1ccc(N)cc1.[Cl-]` [BASIC ORANGE 31, Basic Orange 31], “Log Po/w” value −2.31. Against it:
- CNc1cc(OCC(O)CO)ccc1[N+](=O)[O-] (centres unmarked) [2-NITRO-5-GLYCERYL METHYLANILINE] — higher, 0.89
- O=[N+]([O-])c1cc(O)ccc1NCCO [3-NITRO-P-HYDROXYETHYLAMINOPHENOL] — higher, 0.21
- Nc1ccc(O)cc1[N+](=O)[O-] [4-AMINO-3-NITROPHENOL] — higher, 1.19
- Nc1c(N=Nc2ccc([N+](=O)[O-])cc2)c(S(=O)(=O)[O-])cc2cc(S(=O)(=O)[O-])c(N=Nc3ccccc3)c(O)c12.[Na+].[Na+] [ACID BLACK 1] — higher, 1.2
- CCN(Cc1cccc(S(=O)(=O)[O-])c1)c1ccc(C(=C2C=CC(=[N+](CC)Cc3cccc(S(=O)(=O)[O-])c3)C=C2)c2ccccc2S(=O)(=O)[O-])cc1.[Na+].[Na+] [ACID BLUE 9] — higher, −0.32
- Cc1ccc(Nc2ccc(Nc3ccc(C)cc3S(=O)(=O)[O-])c3c2C(=O)c2ccccc2C3=O)c(S(=O)(=O)[O-])c1.[Na+].[Na+] [ACID GREEN 25] — higher, 5.71
- O=S(=O)([O-])c1ccc(N=Nc2c(O)ccc3ccccc23)cc1.[Na+] [ACID ORANGE 7] — higher, 1.4
- O=S(=O)(O)c1cc(S(=O)(=O)O)c2c(/N=N\c3ccc(S(=O)(=O)O)c4ccccc34)c(O)ccc2c1 [ACID RED18] — higher, 1.63
- Nc1cc(S(=O)(=O)[O-])cc2cc(S(=O)(=O)[O-])c(N=Nc3ccccc3)c(O)c12.[Na+].[Na+] [ACID RED 33] — higher, 0.5
- CCN(CC)c1ccc2c(-c3ccc(S(=O)(=O)[O-])cc3S(=O)(=O)[O-])c3ccc(=[N+](CC)CC)cc-3oc2c1.[Na+] [ACID RED 52] — higher, 1.3
- O=C([O-])C1=NN(c2ccc(S(=O)(=O)[O-])cc2)C(=O)C1N=Nc1ccc(S(=O)(=O)[O-])cc1.[Na+].[Na+].[Na+] (centres unmarked) [ACID YELLOW 23] — lower, −10.17
- O=C([O-])c1c(Cl)c(Cl)c(Cl)c(Cl)c1-c1c2cc(Br)c(=O)c(Br)c-2oc2c(Br)c([O-])c(Br)cc12.[Na+].[Na+] [ACIDE RED 92] — higher, 3
- Cc1ccc(Nc2ccc(O)c3c2C(=O)c2ccccc2C3=O)c(S(=O)(=O)[O-])c1.[Na+] [ACIDE VIOLET 43] — higher, 3.1
- C[N+](C)(C)c1cccc(N=C2C=C(N)c3c(O)c(Br)cc(N)c3C2=O)c1.[Cl-] [BASIC BLUE 99] — higher, 1.88
- C[N+](C)(C)c1ccc2ccc(O)c(N=Nc3ccc(N)c([N+](=O)[O-])c3)c2c1.[Cl-] [BASIC BROWN 17] — higher, −0.15
- CN(C)c1ccc(/N=N/c2n(C)cc[n+]2C)cc1 [BASIC RED 51, Basic Red 51] — higher, −1.97
- CC1=NN(c2ccccc2)C(=O)C1N=Nc1cccc([N+](C)(C)C)c1.[Cl-] (centres unmarked) [BASIC YELLOW 57] — higher, 0.06
- CN(N=Cc1cc[n+](C)cc1)c1ccccc1 [BASIC YELLOW 87, Basic Yellow 87] — higher, −1.69
- Nc1ccc(N)c2c1C(=O)c1ccccc1C2=O [DISPERSE VIOLET 1] — higher, 3
- O=[N+]([O-])c1cc(N(CCO)CCO)ccc1NCCO [HC BLUE NO. 2] — higher, −0.32
- O=C1c2ccccc2C(=O)c2c(NCC(O)CO)ccc(NCC(O)CO)c21 (centres unmarked) [HC BLUE NO. 14] — higher, 2.09
- CC1=CC(=C(c2cc(C)c(N)c(C)c2)c2c(Cl)cccc2Cl)C=C(C)C1=N.O=P(O)(O)O [HC BLUE NO. 15] — higher, 3.47
- NCCNc1ccc(OCCO)cc1[N+](=O)[O-] [HC ORANGE NO. 2] — higher, 0.13
- Nc1ccc(NCCO)c([N+](=O)[O-])c1 [HC RED NO. 3] — higher, −0.42
- Cc1cc(N)c([N+](=O)[O-])cc1NCCO [HC VIOLET NO 1] — higher, 0.67
- O=[N+]([O-])c1cc(N(CCO)CCO)ccc1NCCCO [HC VIOLET NO 2] — higher, 0.608
- Cc1cc(N(CCO)CCO)ccc1N=Nc1ccc(N)cc1 [HC YELLOW NO. 7] — higher, 2.59
- COc1ccc([N+](=O)[O-])c(NCCN)c1.Cl [HC YELLOW NO. 9] — higher, 1.3
- COS(=O)(=O)[O-].C[N+]1(CCCNc2ccc(O)c3c2C(=O)c2ccccc2C3=O)CCOCC1 [HYDROXYANTHRAQUINONEAMINO-PROPYL METHYL MORPHOLINIUM METHOSULFATE] — higher, 0.89
- ACID YELLOW 3 — higher, −1.05
- HC RED NO. 7 — higher, 0.13
